Experimental data: patent publication US11149013B2, “Crystal form of urate transporter 1 inhibitor and preparation method and use thereof” (Tianjin Institute of Pharmaceutical Research Co., Ltd., priority 2018, dated 2021)

Key:
Format in all cases: physicochemical
[1] = Influencing factor test: stability to light; settings: illumination 5000 Lx·hr, open weighing bottle
Experimental: (§1) The HPLC conditions for the determination of the crystal form A of the compound TY706 and its raw material in the present invention were as follows: chromatographic column: C18, 5 μu, Φ4.6×150 mm, Waters Atlantis T3; mobile phase A: acetonitrile-methanol=9:1, mobile phase B: 10 mM diammonium hydrogen phosphate (pH was adjusted to 4.30±0.03 with phosphoric acid), gradient elution (Table 2); detection wavelength: 225 nm; column temperature: 35° C.; flow rate: 1.0 mL/min; sample concentration: 0.3 mg/mL; injection volume: 15 μL; solvent for dissolving: phosphate buffer (pH 7.8-8.0; prepared by dissolving 5.59 g of dipotassium hydrogen phosphate and 0.41 g of potassium dihydrogen phosphate by adding water to a volume of 1000 mL).
(§2) The sample of the crystal form A of TY706 prepared in Example 1 and the raw material for the preparation of the crystal form A were simultaneously subjected to influencing factor tests, and they were respectively placed under the conditions of illumination (5000 Lx·hr, with the weighing bottle being placed open), high heat (60° C., with the weighing bottle being placed open), and high humidity (92.5% RH, with the weighing bottle being placed open) for 14 days, and the appearance and the number and total amount of impurities (determined by HPLC) were compared with those measured on day 0, and the results are shown in Table 5-7.

[2] = Influencing factor test: stability to high humidity; settings: high humidity 92.5% RH, open weighing bottle
Experimental: as §1, §2

[3] = Influencing factor test: stability to high heat; settings: high heat 60° C., open weighing bottle
Experimental: as §1, §2

| Compound | Appearance ([1]; day 0) | Number of impurities ([1]; day 0, HPLC) | Total amount of impurities ([1]; day 0, HPLC) | Appearance ([1]; day 7) | Number of impurities ([1]; day 7, HPLC) | Total amount of impurities ([1]; day 7, HPLC) | Appearance ([1]; day 14) | Number of impurities ([1]; day 14, HPLC) | Total amount of impurities ([1]; day 14, HPLC) | Appearance ([2]; day 0) | Number of impurities ([2]; day 0, HPLC) | Total amount of impurities ([2]; day 0, HPLC) | Appearance ([2]; day 7) | Number of impurities ([2]; day 7, HPLC) | Total amount of impurities ([2]; day 7, HPLC) | Appearance ([2]; day 14) | Number of impurities ([2]; day 14, HPLC) | Total amount of impurities ([2]; day 14, HPLC) | Appearance ([3]; day 0) | Number of impurities ([3]; day 0, HPLC) | also measured |
| --- | --- | --- | --- | --- | --- | --- | --- | --- | --- | --- | --- | --- | --- | --- | --- | --- | --- | --- | --- | --- | --- |
| O=C(O)CSc1nnc(Br)n1Cc1ccc(Br)c2ccccc12 [Crystal form A of TY706] | White solid | 4 | 0.24% | White solid | 6 | 0.28% | White solid | 7 | 0.41% | White solid | 4 | 0.24% | White solid | 4 | 0.24% | White solid | 4 | 0.25% | White solid | 4 | Total amount of impurities ([3]; day 0, HPLC): 0.24%; Appearance ([3]; day 7): White solid; Number of impurities ([3]; day 7, HPLC): 4; Total amount of impurities ([3]; day 7, HPLC): 0.25%; Appearance ([3]; day 14): White solid; Number of impurities ([3]; day 14, HPLC): 5; Total amount of impurities ([3]; day 14, HPLC): 0.26% |
| O=C(O)CSc1nnc(Br)n1Cc1ccc(Br)c2ccccc12 [TY706 raw material] | White solid | 11 | 0.69% | White solid | 13 | 1.13% | Light yellow | 25 | 2.68% | White solid | 11 | 0.69% | White solid | 12 | 0.72% | White solid | 14 | 0.84% | White solid | 11 | Total amount of impurities ([3]; day 0, HPLC): 0.69%; Appearance ([3]; day 7): White solid; Number of impurities ([3]; day 7, HPLC): 12; Total amount of impurities ([3]; day 7, HPLC): 0.78%; Appearance ([3]; day 14): White solid; Number of impurities ([3]; day 14, HPLC): 15; Total amount of impurities ([3]; day 14, HPLC): 1.19% |
